# Source: patent US8765748B2, “Indazolyl, benzimidazolyl, benzotriazolyl substituted indolinone derivatives as kinase inhibitors useful in the treatment of cancer” (University Health Network, priority 2007, dated 2014)
# Legend:
# Assay type in all cases: biochemical
# PLK1 = target: T1, PLK1 (Homo sapiens, UniProt P53350); experiment: PLK1 Inhibition Assay (Z-Lyte); settings: for IC50: 25 μM ATP, 8 nM PLK1, read-out: PLK1 IC50 Ranges; for inhibition at 10 µM: 10 μM compound, read-out: PLK1 relative inhibition percentage at a dose of 10 μM
# T1 construct: purchased Invitrogen PV3501
# Method: PLK1 inhibition was determined using the Z-Lyte assay kit from Invitrogen (cat #PV3802). […] The % inhibition values were determined according to the manufacturer's directions and IC50 values were obtained using a non-linear 4 point logistic curve fit (XLfit4, IDBS)
# PLK2 = target: T2, PLK2 (Homo sapiens, UniProt Q9NYY3); experiment: PLK2 Inhibition Assay (Z-Lyte); settings: for IC50: 60 μM ATP, 133 nM PLK2, read-out: PLK2 IC50 Ranges; for inhibition at 10 µM: 10 μM compound, read-out: PLK2 relative inhibition percentage at a dose of 10 μM
# T2 construct: purchased Invitrogen PV4204
# Method: (§1) PLK2 inhibition was determined using the Z-Lyte assay kit from Invitrogen (cat #PV3802). The assay was performed using the recommended manufacturer's instructions with 60 μM ATP and 133 nM PLK2 (Invitrogen cat #PV4204). The % inhibition values were determined according to the manufacturer's directions and IC50 values were obtained using a non-linear 4 point logistic curve fit (XLfit4, IDBS)
# Aurora A = target: T3, Aurora A (Homo sapiens, UniProt O14965); experiment: Aurora A Inhibition Assay (Z-Lyte); settings: for IC50: 20 μM ATP, 12 nM Aurora A, read-out: Aurora A IC50 Ranges; for inhibition at 10 µM: 10 μM compound, read-out: Aurora A relative inhibition percentage at a dose of 10 μM
# T3 construct: purchased Invitrogen PV3612
# T3 sequence (O14965 1-403): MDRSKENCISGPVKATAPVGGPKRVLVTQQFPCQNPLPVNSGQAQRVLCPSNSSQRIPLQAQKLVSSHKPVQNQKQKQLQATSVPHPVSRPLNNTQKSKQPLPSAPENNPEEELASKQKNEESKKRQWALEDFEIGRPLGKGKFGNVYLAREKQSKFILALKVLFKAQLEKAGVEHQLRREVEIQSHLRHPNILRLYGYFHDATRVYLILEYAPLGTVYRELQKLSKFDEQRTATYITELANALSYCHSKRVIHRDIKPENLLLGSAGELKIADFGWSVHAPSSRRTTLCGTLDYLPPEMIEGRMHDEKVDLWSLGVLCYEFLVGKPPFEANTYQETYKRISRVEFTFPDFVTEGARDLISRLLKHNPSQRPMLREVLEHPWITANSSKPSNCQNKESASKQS
# Method: as §1, with “Aurora A” for “PLK2”, “Invitrogen.” for “Invitrogen (cat #PV3802).”, “20” for “60”, “12” for “133”, “#PV3612).” for “#PV4204).”
# Aurora B = target: T4, Aurora B (Homo sapiens, UniProt Q96GD4); experiment: Aurora B Inhibition Assay (Z-Lyte); settings: 128 μM ATP, 28 nM Aurora B; read-out: Aurora B IC50 Ranges
# T4 construct: purchased Invitrogen PV3970
# Method: as §1, with “Aurora B” for “PLK2”, “Invitrogen.” for “Invitrogen (cat #PV3802).”, “128” for “60”, “28” for “133”, “#PV3970).” for “#PV4204).”
# human PLK4 = target: T5, human PLK4 (Homo sapiens, UniProt O00444); experiment: PLK4 Inhibition Assay (indirect ELISA); settings: 15 μM ATP, 4 nM GST-PLK4; read-out: PLK4 IC50 Ranges
# T5 construct: amino terminal GST fusion of residues 1-391 of human PLK4; made in house; host or cells: E. coli
# T5 sequence (O00444 1-391): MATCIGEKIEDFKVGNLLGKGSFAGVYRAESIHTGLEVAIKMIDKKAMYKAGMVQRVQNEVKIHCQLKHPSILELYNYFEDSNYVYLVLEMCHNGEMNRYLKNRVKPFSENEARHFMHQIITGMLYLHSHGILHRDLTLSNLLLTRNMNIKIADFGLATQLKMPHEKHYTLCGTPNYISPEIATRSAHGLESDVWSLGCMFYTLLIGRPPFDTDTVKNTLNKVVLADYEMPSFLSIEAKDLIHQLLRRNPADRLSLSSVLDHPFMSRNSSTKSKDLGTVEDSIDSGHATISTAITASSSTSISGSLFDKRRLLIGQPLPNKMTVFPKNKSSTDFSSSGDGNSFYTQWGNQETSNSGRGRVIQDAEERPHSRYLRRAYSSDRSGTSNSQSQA
# How it was run: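 IC50 values, from 4-point logistic fitting, reflect remaining activity measured by indirect ELISA. Enzyme was GST-PLK4 treated with lambda phosphatase and given a 15-minute pre-incubation with compound before ATP start.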
# T1 sequence (P53350 whole entry): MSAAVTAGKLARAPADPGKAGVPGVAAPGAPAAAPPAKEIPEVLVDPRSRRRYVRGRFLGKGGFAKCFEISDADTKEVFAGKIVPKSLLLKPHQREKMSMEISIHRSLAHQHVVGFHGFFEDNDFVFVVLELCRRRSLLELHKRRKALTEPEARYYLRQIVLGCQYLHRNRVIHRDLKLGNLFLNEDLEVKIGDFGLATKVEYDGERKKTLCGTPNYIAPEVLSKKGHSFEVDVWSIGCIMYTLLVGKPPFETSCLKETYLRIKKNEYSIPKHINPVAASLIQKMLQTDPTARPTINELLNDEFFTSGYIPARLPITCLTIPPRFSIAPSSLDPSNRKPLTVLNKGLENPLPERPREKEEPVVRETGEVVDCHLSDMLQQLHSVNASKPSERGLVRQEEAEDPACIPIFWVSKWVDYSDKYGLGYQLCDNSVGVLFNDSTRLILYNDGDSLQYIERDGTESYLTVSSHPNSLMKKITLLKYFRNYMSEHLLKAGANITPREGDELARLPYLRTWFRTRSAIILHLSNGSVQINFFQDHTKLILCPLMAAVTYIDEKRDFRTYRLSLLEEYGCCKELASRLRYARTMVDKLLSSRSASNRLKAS
# T2 sequence (Q9NYY3 whole entry): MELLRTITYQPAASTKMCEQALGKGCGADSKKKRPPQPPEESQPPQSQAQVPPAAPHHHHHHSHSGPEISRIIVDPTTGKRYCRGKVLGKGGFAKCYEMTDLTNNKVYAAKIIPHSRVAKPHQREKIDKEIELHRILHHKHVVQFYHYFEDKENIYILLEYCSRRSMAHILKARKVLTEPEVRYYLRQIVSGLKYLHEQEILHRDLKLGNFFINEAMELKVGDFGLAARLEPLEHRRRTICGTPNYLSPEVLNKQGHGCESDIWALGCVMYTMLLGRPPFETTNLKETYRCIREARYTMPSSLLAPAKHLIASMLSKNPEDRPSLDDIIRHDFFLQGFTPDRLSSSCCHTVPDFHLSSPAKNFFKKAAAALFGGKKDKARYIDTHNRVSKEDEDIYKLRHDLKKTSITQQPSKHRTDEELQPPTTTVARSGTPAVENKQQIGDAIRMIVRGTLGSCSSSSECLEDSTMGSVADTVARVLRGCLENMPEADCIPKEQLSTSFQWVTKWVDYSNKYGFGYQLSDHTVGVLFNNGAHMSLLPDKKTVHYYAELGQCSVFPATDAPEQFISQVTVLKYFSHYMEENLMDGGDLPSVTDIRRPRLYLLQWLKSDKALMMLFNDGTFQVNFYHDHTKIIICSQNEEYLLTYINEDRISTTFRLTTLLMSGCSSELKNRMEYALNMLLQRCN
# T4 sequence (Q96GD4 whole entry): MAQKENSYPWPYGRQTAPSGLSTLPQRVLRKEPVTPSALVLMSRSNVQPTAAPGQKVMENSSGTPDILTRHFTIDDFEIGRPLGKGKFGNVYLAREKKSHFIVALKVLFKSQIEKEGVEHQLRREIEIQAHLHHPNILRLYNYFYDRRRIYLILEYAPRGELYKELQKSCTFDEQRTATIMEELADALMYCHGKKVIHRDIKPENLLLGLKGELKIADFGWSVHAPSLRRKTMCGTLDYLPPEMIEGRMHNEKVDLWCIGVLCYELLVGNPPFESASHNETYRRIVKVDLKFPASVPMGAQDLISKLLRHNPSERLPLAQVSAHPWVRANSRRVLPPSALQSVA
inhibition at 10 µM (PLK2) [%],SMILES,IC50 (PLK1) [µM],IC50 (PLK2) [µM],IC50 (Aurora A) [µM],IC50 (Aurora B) [µM],IC50 (human PLK4) [µM],inhibition at 10 µM (PLK1) [%],inhibition at 10 µM (Aurora A) [%]
,"O=C1Nc2ccccc2/C1=C\c1ccc2cn[nH]c2c1 [Example A5, (E)-3-((1H-indazol-6-yl)methylene)indolin-2-one]",5 to 50,5 to 50,< 5,< 5,,,
,"COc1ccc2c(c1)C(=Cc1ccc3c(-c4ccc(N5CCN(C)CC5)nc4)n[nH]c3c1)C(=O)N2 (mixture of isomers) [Example A97, (E and Z)-5-methoxy-3-((3-(6-(4-methylpiperazin-1-yl)pyridin-3-yl)-1H-indazol-6-yl)methylene)indolin-2-one]",,,,< 5,< 5,,
,"O=C1Nc2ccccc2/C1=C\c1ccc2[nH]nnc2c1 [Example A1, (E)-3-((1H-benzo[d][1,2,3]triazol-5-yl)methylene)indolin-2-one]",5 to 50,5 to 50,,< 5,< 5,,< 50
,"O=C1Nc2ccccc2C1=Cc1ccc2c(/C=C/c3ccccn3)n[nH]c2c1 (mixture of isomers) [Example A41, (E and Z)-3-((3-((E)-2-(pyridin-2-yl)vinyl)-1H-indazol-6-yl)methylene)indolin-2-one]",> 50,> 50,< 5,< 5,< 5,,
< 50,"O=C1Nc2ncc(Br)cc2C1=Cc1ccc2c(/C=C/c3ccncc3)n[nH]c2c1 (mixture of isomers) [Example A109, (E and Z)-5-bromo-3-((3-((E)-2-(pyridin-4-yl)vinyl)-1H-indazol-6-yl)methyl-ene)-1H-pyrrolo[2,3-b]pyridin-2(3H)-one]",,,< 5,< 5,< 5,< 50,
,"CN(C)Cc1ccc(/C=C/c2n[nH]c3cc(C=C4C(=O)Nc5ccccc54)ccc23)cc1 (mixture of isomers) [Example A106, (E and Z)-3-[(3-{(E)-2-[4-((dimethylamino)methyl)-phenyl]-ethenyl}-1H-indazol-6-yl)methylidene]-1,3-dihydro-2H-indol-2-one 2,2,2-trifluoroacetate]",,,,< 5,< 5,< 50,> 50
< 50,"O=C1Nc2ccccc2/C1=C\c1ccc2c(/C=C/c3ccccc3Cl)n[nH]c2c1 [Example A60, (E)-3-((3-((E)-2-chlorostyryl)-1H-indazol-6-yl)methylene)indolin-2-one]",,,< 5,< 5,< 5,< 50,

SMILES,inhibition at 10 µM (PLK2) [%],IC50 (PLK1) [µM],IC50 (PLK2) [µM],IC50 (Aurora A) [µM],IC50 (Aurora B) [µM],IC50 (human PLK4) [µM],inhibition at 10 µM (PLK1) [%],inhibition at 10 µM (Aurora A) [%]
"CN1CCN(c2ccc(/C=C/c3n[nH]c4cc(C=C5C(=O)Nc6ccccc65)ccc34)cn2)CC1 (mixture of isomers) [Example A108, (E and Z)-3-((3-((E)-2-(6-(4-methylpiperazin-1-yl)pyridin-3-yl)vinyl)-1H-indazol-6-yl)methylene)indolin-2-one]",< 50,,,< 5,< 5,< 5,< 50,
